Reference: patent US12377060B2, “Methods and compositions for preventing or treating tissue calcification” (Epizon Pharma, Inc., priority 2018, dated 2025)

Tests used:
osteocalcin = settings: 100-200 μg/d for 4 to 12 weeks; cited from earlier work
[1] = system: ESRD subjects on stable hemodialysis; assay: Example 1: contemplated administration of MK-7 and/or MKH2-7 to ESRD subjects on stable hemodialysis, biomarkers of tissue calcification; assay type: in vivo, human; settings: 10 mg, 25 mg or 50 mg once daily orally
Description: This example describes the administration of MK-7 and/or MKH2-7 to a subject with ESRD and/or on stable hemodialysis. It is contemplated that administration of MK-7 and/or MKH2-7 will result in a change in aortic compliance (via plethysmography), vascular calcification and certain biomarker levels indicative of slowing the progression of, arresting, or reversing tissue calcification.
ESRD subjects on stable hemodialysis orally receive MK-7 and/or MKH2-7 at 10 mg, 25 mg or 50 mg once daily for least 2 weeks, 4 weeks, 6 weeks, 8 weeks, 3 months, 6 months, 1 year, or indefinitely. The dosage form is a 10 mg or 25 mg soft-gel capsule. Two 25 mg capsules are administered once daily to the 50 mg dosage cohort.
Coronary arterial calcium scores (CAC) are used to estimate the extent of calcification of thoracic arteries. A high CAC score is indicative of calcification, and treatment has the aim of arresting the long term increase in CAC score, or reversing it, or slowing the rate of increase. Aortic plethysmography also is used to measure arterial compliance, which decreases as calcification increases. Pulse wave velocity (PWV) also is measured to assess arterial compliance. The foregoing measures are useful in estimating the utility of treatments intended to prevent, slow the progression of, arrest or reverse vascular calcification. These measurements are used pre- and post-treatment with MK-7 and/or MKH2-7 to assess treatment value.
Further, several biomarkers are assessed to determine the efficacy of MK-7 and/or MKH2-7 at the three dose levels. Exemplary biomarkers include PIVKA-II; uncarboxylated and total Matrix Gla Protein (MGP); uncarboxylated, carboxylated and total osteocalcin protein; uncarboxylated, carboxylated and total Protein C, osteoprotegerin, Fetuin A, and hs-CRP. Blood samples are obtained to measure the biomarkers, most conveniently during patient visits for hemodialysis.
It is contemplated that administration of MK-7 and/or MKH2-7 can result in (i) an increase in […], osteoprotegerin, or Fetuin A, which is indicative of slowing the progression of, arresting or reversing tissue calcification, (ii) a decrease in uncarboxylated MGP, uncarboxylated osteocalcin, and/or uncarboxylated Protein C, which is indicative of slowing the progression of, arresting or reversing tissue calcification, and/or (iii) a decrease in hs-CRP, which is indicative of slowing the progression of, arresting or reversing tissue calcification and/or reduced inflammation.
It is contemplated that, following the daily administration of 10 mg, 25 mg or 50 mg MK-7 and/or MKH2-7, at least one of PIVKA-II, under-carboxylated Matrix Gla Protein (MGP), uncarboxylated osteocalcin protein, uncarboxylated Protein C, osteoprotegerin, Fetuin A, and hs-CRP will show a change indicative of slowing the progression of, arresting or reversing tissue calcification.

SMILES | ratio of carboxylated to undercarboxylated osteocalcin (osteocalcin) | change in Fetuin A [1] | change in hs-CRP [1] | change in osteoprotegerin [1] | change in uncarboxylated MGP [1] | change in uncarboxylated Protein C [1] | change in uncarboxylated osteocalcin [1]
CC(C)=CCC/C(C)=C/CC/C(C)=C/CC/C(C)=C/CC/C(C)=C/CC/C(C)=C/CC/C(C)=C/CC1=C(C)C(=O)c2ccccc2C1=O [MK-7, 2-[(2E,6E,10E,14E,18E,22E)-3,7,11,15,19,23,27-heptamethyloctacosa-2,6,10,14,18,22,26-heptaenyl]-3-methylnaphthalene-1,4-dione] | significantly and in a dose-dependent manner | increase | decrease | increase | decrease | decrease | decrease
CC(C)=CCC/C(C)=C/CC/C(C)=C/CC/C(C)=C/CC/C(C)=C/CC/C(C)=C/CC/C(C)=C/Cc1c(C)c(O)c2ccccc2c1O [MKH2-7, 2-[(2E,6E,10E,14E,18E,22E)-3,7,11,15,19,23,27-heptamethyloctacosa-2,6,10,14,18,22,26-heptaenyl]-3-methylnaphthalene-1,4-diol] |  | increase | decrease | increase | decrease | decrease | decrease
